Measurements from patent US10494377B1, “Bergenin lipoic acid ester with antioxidant activity and a method of preparing the same” (SHAANXI UNIVERSITY OF SCIENCE AND TECHNOLOGY, priority 2018, dated 2019).

Experiments:
[1] = DPPH radical scavenging activity assay; assay type: biochemical; settings: for DPPH clearance rate: n = 3, 30 min, 517 nm; for scavenging effect on DPPH (in words): FIG. 1, 7.02-7020 ppm
Source text: The Antioxidant Activity of Bergenin Lipoic Acid Ester Measured by a DPPH Radical Scavenging Activity Assay
2,2-Diphenyl-1-picryl hydrazyl (DPPH) is an organic compound composed of a stable organic radical. In the DPPH molecule, due to the presence of multiple electron-withdrawing —NO2 and large π bonds of the benzene ring, nitrogen free radical is stabilized. Its methanol solution is purple and has a maximum absorption peak at 517 nm. After the addition of an antioxidant, DPPH captures an electron to be paired with the free electron, and the purple fades and turns into a yellow substance. The absorption at 517 nm disappears, and the degree of fading is quantitatively related to the number of electrons it captures. Based on this principle, a spectrophotometer is used to detect the change of the absorbance of the DPPH radical in the sample solution, and the ability of the sample to provide hydrogen atoms and scavenge free radicals can be measured.
Preparation of DPPH solution: measuring exact amount of 2,2-diphenyl-1-picryl hydrazyl (DPPH) and dissolving in methanol to prepare a 0.2 mmol/L DPPH solution, stored at 0° C. in dark.
Preparation of test solutions: Vc (vitamin C, positive control), bergenin lipoic acid ester (sample), bergenin (control), lipoic acid (control), and mixture of bergenin and lipoic acid (reference). The test solutions were serially diluted with acetonitrile, and four groups of controls were separately dissolved in a test tube with a certain amount of methanol to prepare the same concentration gradient as the sample.
Absorbance measurement: Take 2 mL of sample solution (Table 1, number B), add 2 mL of DPPH solution with concentration of 2*10^−4 moL/L, mix and react in the dark at room temperature for 30 min, adjust to zero with methanol, and measure at 517 nm. The absorbance Ai was simultaneously measured for the absorbance Aj of 2 mL of methanol mixed with 2 mL of the sample solution and the absorbance Ao of 2 mL of DPPH solution mixed with 2 mL of acetonitrile (The experimental results are shown in Table 2).
Clearance calculation: clearance rate (%) [1−(Ai−Aj)/Ao]*100%

[2] = Takahashi et al. 2003; cited from earlier work
[3] = Takahashi et al. 2003; cited from earlier work; remark: listed apart in the source

Question: With `O=C1O[C@H]([C@@H](O)CO)C(O)=C1O` [Vc, Vitamin C] as the molecule, how does the DPPH clearance rate ([1]; 7.02 ppm) read?
Answer: 82.01%

Question: What about the DPPH clearance rate ([1]; 140.4 ppm) of the same molecule?
Answer: 95.17%

Question: And the DPPH clearance rate ([1]; 702 ppm)?
Answer: 95.70%

Question: What about the DPPH clearance rate ([1]; 2808 ppm) of the same molecule?
Answer: 99.90%

Question: And the DPPH clearance rate ([1]; 7020 ppm)?
Answer: 99.90%

Question: For `COc1c(O)cc2c(c1O)C1OC(COC(=O)CCCCC3CCSS3)C(O)C(O)C1OC2=O` (stereo not shown) [B, Bergenin lipoic acid ester], which DPPH clearance rate ([1]; 7.02 ppm) is on record?
Answer: 27.56%

Question: And the DPPH clearance rate ([1]; 140.4 ppm)?
Answer: 60.83%

Question: And the DPPH clearance rate ([1]; 702 ppm)?
Answer: 76.34%

Question: What about the DPPH clearance rate ([1]; 2808 ppm) of the same molecule?
Answer: 94.92%

Question: And the DPPH clearance rate ([1]; 7020 ppm)?
Answer: 97.64%

Question: And the “scavenging effect on DPPH (in words)” value [1]?
Answer: better than E

Question: And the “scavenging effect on DPPH (in words)” value ([1]; listed as bergenin lipoic acid ester)?
Answer: significant scavenging effect on DPPH in a concentration-dependent manner

Question: And the “scavenging ability compared with Vc (in words)” value ([1]; concentration above 2808 ppm)?
Answer: close to the scavenging ability of Vc

Question: Which results are given for `O=C(O)CCCCC1CCSS1` (stereo not shown) [D, Lipoic acid]?
Answer: DPPH clearance rate ([1]; 7.02 ppm): 20.40%; DPPH clearance rate ([1]; 140.4 ppm): 28.64%; DPPH clearance rate ([1]; 702 ppm): 39.66%; DPPH clearance rate ([1]; 2808 ppm): 60.54%; DPPH clearance rate ([1]; 7020 ppm): 82.95%

Question: For `COc1c(O)cc2c(c1O)[C@@H]1O[C@H](CO)[C@@H](O)[C@H](O)[C@H]1OC2=O` [C, Bergenin], which DPPH clearance rate ([1]; 7.02 ppm) is on record?
Answer: 15.57%

Question: And the DPPH clearance rate ([1]; 140.4 ppm)?
Answer: 19.79%

Question: What about the DPPH clearance rate ([1]; 702 ppm) of the same molecule?
Answer: 30.98%

Question: And the DPPH clearance rate ([1]; 2808 ppm)?
Answer: 54.56%

Question: What about the DPPH clearance rate ([1]; 7020 ppm) of the same molecule?
Answer: 90.01%

Question: And the “scavenging effect on DPPH free radicals (in words)” value [2]?
Answer: good scavenging effect

Question: What about the “scavenging effect on superoxide anions (in words)” value [3] of the same molecule?
Answer: good scavenging effect
